Tests used:
Assay in all cases: relative viability (nuclei count vs DMSO), 5 days (fraction); higher = more cells survive
[1] = tested on: PC-3 [JPC-3]
Method in brief: (§1)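 Lung cancer cell lines were pin-tool dosed in 1536-well plates on the day after seeding, with either a lone drug or a fixed anchor-drug dose plus five library-drug doses (not always all listed) in √10 steps. Nuclei were counted on 4× images after 5 days. Relative viability is the ratio of treated-well to vehicle-well nuclei counts, with each value a median of duplicate plates.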

[2] = tested on: UMC-11
Method in brief: as §1

[3] = tested on: HCC-15
Method in brief: as §1

[4] = tested on: LC-2-ad
Method in brief: as §1

[5] = tested on: NCI-H1666
Method in brief: as §1

[6] = tested on: NCI-H1944
Method in brief: as §1

[7] = tested on: NCI-H661
Method in brief: as §1

[8] = tested on: HCC-78
Method in brief: as §1

[9] = tested on: NCI-H838
Method in brief: as §1

[10] = tested on: LXF-289
Method in brief: as §1

[11] = tested on: NCI-H596
Method in brief: as §1

[12] = tested on: LK-2
Method in brief: as §1

[13] = tested on: SK-MES-1
Method in brief: as §1

[14] = tested on: NCI-H358
Method in brief: as §1

[15] = tested on: NCI-H2087
Method in brief: as §1

[16] = tested on: NCI-H2342
Method in brief: as §1

[17] = tested on: NCI-H322M
Method in brief: as §1

[18] = tested on: LCLC-97TM1
Method in brief: as §1

[19] = tested on: NCI-H650
Method in brief: as §1

[20] = tested on: ChaGo-K-1
Method in brief: as §1

[21] = tested on: NCI-H1651
Method in brief: as §1

[22] = tested on: BEN
Method in brief: as §1

[23] = tested on: LU99A
Method in brief: as §1

CC1(C)CCC(c2ccc(Cl)cc2)=C(CN2CCN(c3ccc(C(=O)NS(=O)(=O)c4ccc(N[C@H](CCN5CCOCC5)CSc5ccccc5)c(S(=O)(=O)C(F)(F)F)c4)cc3)CC2)C1 [Navitoclax] + COc1cccc2cc(-c3nc([C@H]4CC[C@H](C(=O)O)CC4)n4ncnc(N)c34)[nH]c12 [OSI-027] (partner 0.5 µM)
relative viability ([1]; first compound 0.005 µM): 0.844 | relative viability ([1]; first compound 0.01581 µM): 0.764 | relative viability ([1]; first compound 0.05 µM): 0.768 | relative viability ([1]; first compound 0.1581 µM): 0.809 | relative viability ([1]; first compound 0.5 µM): 0.703 | relative viability ([2]; first compound 0.005 µM): 0.462 | relative viability ([2]; first compound 0.01581 µM): 0.501 | relative viability ([2]; first compound 0.05 µM): 0.471 | relative viability ([2]; first compound 0.1581 µM): 0.422 | relative viability ([2]; first compound 0.5 µM): 0.234 | relative viability ([3]; first compound 0.005 µM): 0.695 | relative viability ([3]; first compound 0.01581 µM): 0.746 | relative viability ([3]; first compound 0.05 µM): 0.573 | relative viability ([3]; first compound 0.1581 µM): 0.699 | relative viability ([3]; first compound 0.5 µM): 0.624 | relative viability ([4]; first compound 0.005 µM): 0.802 | relative viability ([4]; first compound 0.01581 µM): 1.09 | relative viability ([4]; first compound 0.05 µM): 0.895 | relative viability ([4]; first compound 0.1581 µM): 0.762 | relative viability ([4]; first compound 0.5 µM): 0.767 | relative viability ([5]; first compound 0.005 µM): 0.823 | relative viability ([5]; first compound 0.01581 µM): 0.815 | relative viability ([5]; first compound 0.05 µM): 0.859 | relative viability ([5]; first compound 0.1581 µM): 0.758 | relative viability ([5]; first compound 0.5 µM): 0.839 | relative viability ([6]; first compound 0.005 µM): 0.401 | relative viability ([6]; first compound 0.01581 µM): 0.495 | relative viability ([6]; first compound 0.05 µM): 0.364 | relative viability ([6]; first compound 0.1581 µM): 0.376 | relative viability ([6]; first compound 0.5 µM): 0.419 | relative viability ([7]; first compound 0.005 µM): 0.734 | relative viability ([7]; first compound 0.01581 µM): 0.775 | relative viability ([7]; first compound 0.05 µM): 0.793 | relative viability ([7]; first compound 0.1581 µM): 0.687 | relative viability ([7]; first compound 0.5 µM): 0.716 | relative viability ([8]; first compound 0.005 µM): 0.399 | relative viability ([8]; first compound 0.01581 µM): 0.343 | relative viability ([8]; first compound 0.1581 µM): 0.349 | relative viability ([8]; first compound 0.5 µM): 0.384 | relative viability ([9]; first compound 0.005 µM): 0.373 | relative viability ([9]; first compound 0.01581 µM): 0.434 | relative viability ([9]; first compound 0.05 µM): 0.495 | relative viability ([9]; first compound 0.1581 µM): 0.349 | relative viability ([9]; first compound 0.5 µM): 0.41 | relative viability ([10]; first compound 0.005 µM): 0.77 | relative viability ([10]; first compound 0.01581 µM): 0.867 | relative viability ([10]; first compound 0.05 µM): 0.731 | relative viability ([10]; first compound 0.1581 µM): 0.753 | relative viability ([10]; first compound 0.5 µM): 0.795 | relative viability ([11]; first compound 0.005 µM): 0.765 | relative viability ([11]; first compound 0.01581 µM): 0.684 | relative viability ([11]; first compound 0.1581 µM): 0.953 | relative viability ([11]; first compound 0.5 µM): 0.8 | relative viability ([12]; first compound 0.005 µM): 0.204 | relative viability ([12]; first compound 0.01581 µM): 0.256 | relative viability ([12]; first compound 0.05 µM): 0.182 | relative viability ([12]; first compound 0.1581 µM): 0.174 | relative viability ([12]; first compound 0.5 µM): 0.193 | relative viability ([13]; first compound 0.005 µM): 0.624 | relative viability ([13]; first compound 0.01581 µM): 0.681 | relative viability ([13]; first compound 0.05 µM): 0.525 | relative viability ([13]; first compound 0.1581 µM): 0.579 | relative viability ([13]; first compound 0.5 µM): 0.63 | relative viability ([14]; first compound 0.005 µM): 0.785 | relative viability ([14]; first compound 0.01581 µM): 1.01 | relative viability ([14]; first compound 0.05 µM): 0.706 | relative viability ([14]; first compound 0.1581 µM): 0.845 | relative viability ([14]; first compound 0.5 µM): 0.686 | relative viability ([15]; first compound 0.005 µM): 0.47 | relative viability ([15]; first compound 0.01581 µM): 0.679 | relative viability ([15]; first compound 0.1581 µM): 0.537 | relative viability ([15]; first compound 0.5 µM): 0.794 | relative viability ([16]; first compound 0.005 µM): 0.579 | relative viability ([16]; first compound 0.01581 µM): 0.632 | relative viability ([16]; first compound 0.05 µM): 0.628 | relative viability ([16]; first compound 0.1581 µM): 0.603 | relative viability ([16]; first compound 0.5 µM): 0.525 | relative viability ([17]; first compound 0.005 µM): 0.536 | relative viability ([17]; first compound 0.01581 µM): 0.696 | relative viability ([17]; first compound 0.05 µM): 0.552 | relative viability ([17]; first compound 0.1581 µM): 0.545 | relative viability ([17]; first compound 0.5 µM): 0.706 | relative viability ([18]; first compound 0.005 µM): 0.608 | relative viability ([18]; first compound 0.01581 µM): 0.484 | relative viability ([18]; first compound 0.05 µM): 0.569 | relative viability ([18]; first compound 0.1581 µM): 0.482 | relative viability ([18]; first compound 0.5 µM): 0.601 | relative viability ([19]; first compound 0.005 µM): 0.525 | relative viability ([19]; first compound 0.01581 µM): 0.569 | relative viability ([19]; first compound 0.05 µM): 0.525 | relative viability ([19]; first compound 0.1581 µM): 0.498 | relative viability ([19]; first compound 0.5 µM): 0.547 | relative viability ([20]; first compound 0.005 µM): 0.548 | relative viability ([20]; first compound 0.01581 µM): 0.536 | relative viability ([20]; first compound 0.05 µM): 0.541 | relative viability ([20]; first compound 0.1581 µM): 0.55 | relative viability ([20]; first compound 0.5 µM): 0.6 | relative viability ([21]; first compound 0.005 µM): 0.685 | relative viability ([21]; first compound 0.01581 µM): 0.795 | relative viability ([21]; first compound 0.05 µM): 0.813 | relative viability ([21]; first compound 0.1581 µM): 0.782 | relative viability ([21]; first compound 0.5 µM): 0.721 | relative viability ([22]; first compound 0.005 µM): 0.286 | relative viability ([22]; first compound 0.01581 µM): 0.308 | relative viability ([22]; first compound 0.05 µM): 0.333 | relative viability ([22]; first compound 0.1581 µM): 0.308 | relative viability ([22]; first compound 0.5 µM): 0.281 | relative viability ([23]; first compound 0.005 µM): 0.305 | relative viability ([23]; first compound 0.01581 µM): 0.345 | relative viability ([23]; first compound 0.05 µM): 0.248 | relative viability ([23]; first compound 0.1581 µM): 0.26 | relative viability ([23]; first compound 0.5 µM): 0.312

Source: the supplement of paper PMC10307832
